Values of other authors as cited in PubChem BioAssay AID1259409 (Chemical Carcinogenesis Research Information System (CCRIS), 2018).

Tested on: rodent chemically induced tumor inhibition, incidence and multiplicity
Assay: CCRIS tumor inhibitor studies
Settings: for tumour outcome (control, treated, inhibition, significance): Species: MOUSE; for outcome: Carcinogen: AZOXYMETHANE [25843-45-2], 1 WK AFTER LAST AZOXYMETHANE INJECTION (STUDY DURATION: 36 WK), Route [Inhibitor]: DIET, Species: RAT, Strain/Sex: F344/MALE, Dose [Carcinogen]: 20 MG/KG 1X A WK FOR 2 WK

CC(C)(O)CCC(=O)C(C)(O)C1[C@H](O)C[C@@]2(C)[C@@H]3CC=C4[C@@H](C[C@H](O)[C@@H](O)C4(C)C)[C@]3(C)C(=O)C[C@]12C (some centres not stated)
tumour outcome (control, treated, inhibition, significance) (Carcinogen: 7,12-DIMETHYLBENZ[A]ANTHRACENE, 57-97-6, Dose [Inhibitor]: 0, 85 NMOL IN 0.1 ML ACETONE APPLIED 1 HR PRIOR TO EACH PROMOTER DOSE 2/WK FOR 20 WK (STUDY DURATION: 21 WK), Route [Inhibitor]: DERMAL, Strain/Sex: ICR/FEMALE, Target Tissue: Type of Lesion: SKIN: PAPILLOMA, Dose [Carcinogen]: 100 UG IN 0.1 ML ACETONE ONCE, Promoter: 12-O-TETRADECANOYLPHORBOL-13-ACETATE, 16561-29-8): 100%, 100%, 0%, not significant

COc1ccc(-c2oc3c(OC)c(OC)c(OC)c(OC)c3c(=O)c2OC)cc1OC
tumour outcome (control, treated, inhibition, significance) (Carcinogen: 7,12-DIMETHYLBENZ[A]ANTHRACENE [57-97-6], Dose [Inhibitor]: 85 NMOL IN 0.1 ML ACETONE 2X/WK FOR 20 WK 1 HR PRIOR TO EACH PROMOTER DOSE (STUDY DURATION: 21 WK), Route [Inhibitor]: DERMAL, Strain/Sex: ICR/FEMALE, Target Tissue: Type of Lesion: SKIN: PAPILLOMA, Dose [Carcinogen]: 390 NMOL IN 0.1 ML ACETONE ONCE (STUDY DURATION: 21 WK), Promoter: 12-O-TETRADECANOYL-13-ACETATE [16561-29-8]): 100%, 80%, 20%, not calculated

CC(O)CCC(=O)c1cccnc1 (configuration not stated)
tumour outcome (control, treated, inhibition, significance) (Carcinogen: 4-(METHYLNITROSAMINO)-1-(3-PYRIDYL)-1-BUTANONE, 64091-91-4, Dose [Inhibitor]: 0, 25 UMOL IN 0.1 ML CORN OIL ONCE 2 HR PRIOR TO CARCINOGEN DOSE (STUDY DURATION: 16 WK), Route [Inhibitor]: GAVAGE, Strain/Sex: STRAIN-A/FEMALE, Target Tissue: Type of Lesion: LUNG: ADENOMA, Dose [Carcinogen]: 10 UMOL IN 0.1 ML SALINE ONCE, Promoter: NONE USED): 100%, 100%, 0%, not significant

COc1ccc(-c2cc(=O)c3c(OC)c(OC)c(OC)c(OC)c3o2)cc1OC
outcome (Dose [Inhibitor]: 0.01% IN DIET FOR 34 WK, Target Tissue: Type of Lesion: LARGE INTESTINE: ADENOCARCINOMA): 67, 55, 18%, not significant
outcome (Dose [Inhibitor]: 0.01% IN DIET FOR 34 WK, Target Tissue: Type of Lesion: LARGE INTESTINE: ADENOMA): 33, 45, -36%
outcome (Dose [Inhibitor]: 0.05% IN DIET FOR 34 WK, Target Tissue: Type of Lesion: LARGE INTESTINE: ADENOCARCINOMA): 67, 35, 48%, p<0.05
outcome (Dose [Inhibitor]: 0.05% IN DIET FOR 34 WK, Target Tissue: Type of Lesion: LARGE INTESTINE: ADENOMA): 33, 50, -52%
